Measured values as given in ChEMBL document CHEMBL1126341, “Synthesis of stereoisomers of 1,4:3,6-dianhydrohexitol nitrate derivative, KF-14124” (1992).

Columns and labels:
Assay type in all cases: functional
[1] = tested on: Rattus norvegicus; experiment: Compound was tested for inhibition of T-wave elevation in lysine-Vasopressin -Induced-Angina Pectoris model in rats when administered intraperitoneally.; conditions: for minimal effective dose: Rattus norvegicus, ip, read-out: MED
[2] = tested on: Rattus norvegicus; experiment: Compound was tested for inhibition of T-wave elevation in lysine-Vasopressin -Induced-Angina Pectoris model in rats when administered perorally; conditions: po, read-out: MED
[3] = organism: Canis familiaris; experiment: Minimum effective dose in […] induced heart failure in left ventricular end diastolic pressure model of dog; conditions: Canis lupus familiaris, Heart left ventricle; read-out: MED
[4] = organism: Canis familiaris; experiment: Minimum effective dose in propanol induced heart failure in left ventricular end diastolic pressure model of dog when dose given intradermally; conditions: Canis lupus familiaris, Heart left ventricle; read-out: MED

Row | Structure (SMILES) | minimal effective dose [1] [mg/kg] | minimal effective dose [2] [mg/kg] | further results
1 | O=[N+]([O-])O[C@@H]1CO[C@H]2[C@@H]1OC[C@@H]2N1CCN(CCCSc2ccccc2)CC1 | > 25 | > 30 | –
2 | O=[N+]([O-])O[C@H]1CO[C@H]2[C@@H]1OC[C@H]2O[N+](=O)[O-] [ISOSORBIDE DINITRATE] | – | – | minimal effective dose [3]: > 0.3 mg/kg
3 | O=[N+]([O-])O[C@H]1CO[C@H]2[C@@H]1OC[C@H]2N1CCN(CCCSc2ccccc2)CC1 | – | – | MED [1]: >25 mg/kg
4 | O=[N+]([O-])O[C@@H]1CO[C@H]2[C@@H]1OC[C@H]2N1CCN(CCCSc2ccccc2)CC1 | > 25 | – | –
5 | O=[N+]([O-])O[C@H]1CO[C@@H]2C(N3CCN(CCCSc4ccccc4)CC3)CO[C@H]12 (single isomer, unassigned) | 12.5 | 10 | minimal effective dose [4]: 0.1 mg/kg
